Experimental data published in ChEMBL document CHEMBL2016544, “Low brain penetrant CB1 receptor agonists for the treatment of neuropathic pain” (Bioorg Med Chem Lett, 2012).
≈ marks a conversion by molar mass, not a printed value. Calls of active or inactive are those of the source. The rule behind the calls is not given here.

Assays:
[1] = Oral bioavailability in rat; assay type: ADME, organism-based; conditions: in vivo
Cannabinoid receptor 1 [2] = molecular target: T1, Cannabinoid receptor 1 (Homo sapiens, UniProt P21554); experiment: Displacement of [3H]CP 55,940 from human CB1 receptor expressed in insect sf9 membranes; assay type: cell membranes
[3] = Ratio of drug level in brain to plasma in mouse; assay type: ADME, organism-based; conditions: read-out: BPR
[4] = Intrinsic clearance in rat liver microsomes; assay type: ADME, Microsome; conditions: read-out: CLH
Cannabinoid receptor 2 = Cannabinoid receptor 2 (Homo sapiens, UniProt P34972); experiment: Displacement of [3H]CP 55,940 from human CB2 receptor expressed in insect sf9 membranes; assay type: cell membranes
[5] = Solubility of the compound at pH 7.4; assay type: physicochemical; conditions: buffer
[6] = Intrinsic clearance in human liver microsomes; assay type: ADME, Microsome; conditions: read-out: CLH
Cannabinoid receptor 1 [7] = molecular target: T1, Cannabinoid receptor 1; experiment: Agonist activity at CB1 receptor; assay type: functional
Rattus norvegicus [8] = experiment: Analgesic activity in sc dosed rat Chung von Frey model of neuropathic pain assessed as anti-allodynic effect against mechanical stimulus; assay type: functional
Rattus norvegicus [9] = experiment: Ratio of MED for toxicity in sc dosed rat assessed as catalepsy to ED50 for anti-allodynic activity in sc dosed rat Chung von Frey model of neuropathic pain; assay type: functional
Rattus norvegicus [10] = experiment: Toxicity in sc dosed rat assessed as catalepsy by ring immobility test; assay type: organism-based; conditions: in vivo
[11] = Plasma protein binding in dog; assay type: ADME, cell-free, Canis lupus familiaris; conditions: read-out: PPB (converted)
[12] = Cmax in Wistar BRL rat CSF at 24 mg/kg, po by LC-MS/MS analysis; assay type: ADME, organism-based, Cerebrospinal fluid; parameters: dose 24 mg/kg, route oral
Rattus norvegicus [13] = experiment: Ratio of MED for toxicity in […] to ED50 for anti-allodynic activity in po dosed rat Chung von Frey model of neuropathic pain; assay type: functional
[14] = Ratio of AUC in CSF to free plasma of Wistar BRL rat at 24 mg/kg, po by LC-MS/MS analysis; assay type: ADME, organism-based; parameters: dose 24 mg/kg, route oral; conditions: in vivo
Rattus norvegicus [15] = experiment: Analgesic activity in po dosed rat Chung von Frey model of neuropathic pain assessed as anti-allodynic effect against mechanical stimulus; assay type: functional
[16] = Efflux ratio of apparent permeability from basolateral to apical side over apical to basolateral side in human Caco2 cells; assay type: ADME, cell-based; conditions: Caco-2
[17] = Ratio of Cmax in CSF to free plasma of Wistar BRL rat at 24 mg/kg, po by LC-MS/MS analysis; assay type: ADME, organism-based; parameters: dose 24 mg/kg, route oral; conditions: in vivo
[18] = Intrinsic clearance in rat hepatocytes assessed per million cells; assay type: ADME, cell-based, Hepatocyte; conditions: read-out: CLH
[19] = Plasma protein binding in mouse; assay type: ADME, cell-free; conditions: read-out: PPB (converted)
[20] = Ratio of AUC in mouse brain to AUC in mouse plasma at 3 umol/kg, iv; assay type: ADME; conditions: read-out: Ratio AUC
[21] = Intrinsic clearance in rabbit liver microsomes; assay type: ADME, Oryctolagus cuniculus, Microsome; conditions: read-out: CLH
Rattus norvegicus [22] = experiment: Toxicity in po dosed rat assessed as catalepsy by ring immobility test; assay type: organism-based; conditions: in vivo
[23] = Clearance in rat at 2 mg/kg, iv; assay type: ADME, organism-based; parameters: dose 2 mg/kg, route intravenous; conditions: in vivo
[24] = Cmax in Wistar BRL rat plasma at 24 mg/kg, po by LC-MS/MS analysis; assay type: ADME, organism-based; parameters: dose 24 mg/kg, route oral
[25] = Intrinsic clearance in dog liver microsomes; assay type: ADME, Canis lupus familiaris, Microsome; conditions: read-out: CLH
Rattus norvegicus [26] = experiment: Analgesic activity in po dosed rat Chung von Frey model of neuropathic pain assessed as anti-allodynic effect against mechanical stimulus in presence of CB1 receptor antagonist rimonabant; assay type: functional, organism-based
[27] = Half life in rat at 2 mg/kg, iv; assay type: ADME, organism-based; parameters: dose 2 mg/kg, route intravenous; conditions: in vivo
[28] = Apparent permeability across human Caco2 cells; assay type: ADME, cell-based; conditions: Caco-2
[29] = Cmax in Wistar BRL rat brain at 24 mg/kg, po by LC-MS/MS analysis; assay type: ADME, organism-based; parameters: dose 24 mg/kg, route oral
[30] = Ratio of AUC in brain to plasma of Wistar BRL rat at 24 mg/kg, po by LC-MS/MS analysis; assay type: ADME, organism-based; parameters: dose 24 mg/kg, route oral; conditions: read-out: Ratio AUC
[31] = Intrinsic clearance in human hepatocytes assessed per million cells; assay type: ADME, cell-based, Hepatocyte; conditions: read-out: CLH
[32] = Ratio of Cmax in mouse brain to Cmax in mouse plasma at 3 umol/kg, iv; assay type: ADME
[33] = Oral bioavailability in rat at 10 mg/kg; assay type: ADME, organism-based; conditions: in vivo
[34] = Plasma protein binding in human; assay type: ADME, cell-free; conditions: read-out: PPB (converted)
[35] = Volume of distribution at steady state in rat at 2 mg/kg, iv; assay type: ADME, organism-based; parameters: dose 2 mg/kg, route intravenous; conditions: in vivo, read-out: Vdss
[36] = Ratio of Cmax in brain to plasma of Wistar BRL rat at 24 mg/kg, po by LC-MS/MS analysis; assay type: ADME, organism-based; parameters: dose 24 mg/kg, route oral
[37] = Plasma protein binding in rabbit; assay type: ADME, cell-free, Oryctolagus cuniculus; conditions: read-out: PPB (converted)
[38] = molecular target: Voltage-gated inwardly rectifying potassium channel KCNH2 (Homo sapiens, UniProt Q12809); experiment: Displacement of [3H]dofetilide from human ERG
Rattus norvegicus [39] = experiment: Analgesic activity in po dosed rat Chung Hargreaves model of neuropathic pain assessed as inhibition of thermal hyperalgesia; assay type: functional
[40] = Intrinsic clearance in mouse liver microsomes; assay type: ADME, Microsome; conditions: read-out: CLH
[41] = Cmax in mouse plasma at 3 umol/kg, iv; assay type: ADME, organism-based; parameters: dose 3 umol/kg, route intravenous
[42] = Plasma protein binding in rat; assay type: ADME, cell-free; conditions: read-out: PPB (converted)
[43] = Cmax in mouse brain at 3 umol/kg, iv; assay type: ADME, organism-based; parameters: dose 3 umol/kg, route intravenous

Chain of Cannabinoid receptor 2 (P34972 whole entry): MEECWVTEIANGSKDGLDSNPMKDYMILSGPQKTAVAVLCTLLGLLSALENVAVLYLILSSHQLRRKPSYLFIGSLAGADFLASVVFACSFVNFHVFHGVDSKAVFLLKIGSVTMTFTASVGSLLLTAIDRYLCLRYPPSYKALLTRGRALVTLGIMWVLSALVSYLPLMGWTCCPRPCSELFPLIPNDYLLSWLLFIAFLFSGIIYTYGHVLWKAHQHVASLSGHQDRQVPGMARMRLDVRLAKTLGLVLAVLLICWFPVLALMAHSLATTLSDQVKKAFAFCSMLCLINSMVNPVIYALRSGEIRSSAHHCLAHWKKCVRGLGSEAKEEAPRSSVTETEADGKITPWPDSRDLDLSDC
T1 sequence (P21554 whole entry): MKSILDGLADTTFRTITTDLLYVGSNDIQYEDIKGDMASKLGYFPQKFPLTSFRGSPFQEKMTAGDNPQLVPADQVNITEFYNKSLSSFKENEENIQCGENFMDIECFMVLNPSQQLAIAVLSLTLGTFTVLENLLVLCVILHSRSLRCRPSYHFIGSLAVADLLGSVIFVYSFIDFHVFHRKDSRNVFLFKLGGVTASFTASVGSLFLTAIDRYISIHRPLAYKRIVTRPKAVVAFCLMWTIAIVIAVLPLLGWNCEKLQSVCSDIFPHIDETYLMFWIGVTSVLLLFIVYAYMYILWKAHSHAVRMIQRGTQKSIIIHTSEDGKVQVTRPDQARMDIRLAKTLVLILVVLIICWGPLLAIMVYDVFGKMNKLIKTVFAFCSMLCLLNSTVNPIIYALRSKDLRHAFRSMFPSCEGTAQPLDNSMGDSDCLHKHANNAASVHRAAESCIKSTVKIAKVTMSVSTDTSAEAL
Chain of Voltage-gated inwardly rectifying potassium channel KCNH2 (Q12809 whole entry): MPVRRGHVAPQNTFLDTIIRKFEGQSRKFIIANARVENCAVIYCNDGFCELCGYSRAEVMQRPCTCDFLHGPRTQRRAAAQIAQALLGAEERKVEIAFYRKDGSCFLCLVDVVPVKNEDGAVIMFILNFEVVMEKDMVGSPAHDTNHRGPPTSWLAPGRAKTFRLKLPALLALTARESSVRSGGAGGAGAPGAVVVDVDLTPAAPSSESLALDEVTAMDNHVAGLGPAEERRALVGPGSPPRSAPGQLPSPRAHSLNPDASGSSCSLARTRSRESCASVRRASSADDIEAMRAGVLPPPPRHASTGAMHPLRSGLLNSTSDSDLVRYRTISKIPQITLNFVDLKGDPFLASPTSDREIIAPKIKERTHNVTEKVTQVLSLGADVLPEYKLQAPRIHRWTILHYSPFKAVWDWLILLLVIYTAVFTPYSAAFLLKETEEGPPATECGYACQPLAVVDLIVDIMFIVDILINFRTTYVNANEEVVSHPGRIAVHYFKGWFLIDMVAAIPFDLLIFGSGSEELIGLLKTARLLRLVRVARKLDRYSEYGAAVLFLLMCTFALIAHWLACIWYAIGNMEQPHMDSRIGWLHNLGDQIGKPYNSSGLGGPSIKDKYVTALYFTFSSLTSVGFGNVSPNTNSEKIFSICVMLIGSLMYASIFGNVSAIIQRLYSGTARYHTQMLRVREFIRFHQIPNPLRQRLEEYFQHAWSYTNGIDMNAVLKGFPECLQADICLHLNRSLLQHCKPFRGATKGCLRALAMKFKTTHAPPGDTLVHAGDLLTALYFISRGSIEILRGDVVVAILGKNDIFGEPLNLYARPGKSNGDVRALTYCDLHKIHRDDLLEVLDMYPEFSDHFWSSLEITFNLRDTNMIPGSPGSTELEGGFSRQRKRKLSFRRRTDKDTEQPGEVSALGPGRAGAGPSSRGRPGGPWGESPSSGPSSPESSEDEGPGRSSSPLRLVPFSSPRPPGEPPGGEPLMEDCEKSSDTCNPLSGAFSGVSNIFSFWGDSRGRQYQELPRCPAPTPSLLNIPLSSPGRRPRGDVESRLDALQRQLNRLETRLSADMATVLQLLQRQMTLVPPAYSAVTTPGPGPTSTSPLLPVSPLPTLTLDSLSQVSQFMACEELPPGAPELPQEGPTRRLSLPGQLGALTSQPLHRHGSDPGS

O=C(NCCO)[C@H]1CCCN(Cc2nc(-c3cn(CC4CCS(=O)(=O)CC4)c4c(Cl)cccc34)ns2)C1
bioavailability [1]: 1% | Ki (Cannabinoid receptor 1 [2]): 31.6 nM | Kp [3]: 0.03 | microsomal CLint [4]: 32 µL/min/mg | Ki (Cannabinoid receptor 2): 20 nM | solubility [5]: 45 µg/mL (≈ 79.5 µM) | microsomal CLint [6]: 47 µL/min/mg | EC50 (Cannabinoid receptor 1 [7]): 20 nM

O=C(NCCO)C1CCN(Cc2nc(-c3cn(CC4CCOCC4)c4c(Cl)cccc34)ns2)CC1
microsomal CLint [4]: 49 µL/min/mg | microsomal CLint [6]: 18 µL/min/mg | EC50 (Cannabinoid receptor 1 [7]): 79.4 nM

O=C(NCCO)C1CCN(Cc2nc(-c3cn(CC4CCS(=O)(=O)CC4)c4c(Cl)cccc34)no2)CC1
microsomal CLint [4]: < 12 µL/min/mg | microsomal CLint [6]: < 12 µL/min/mg | EC50 (Cannabinoid receptor 1 [7]): 1000 nM

COc1cccc2c(-c3nsc(CN4CCC(C(=O)NCCO)CC4)n3)cn(CC3CCOCC3)c12
microsomal CLint [4]: 33 µL/min/mg | microsomal CLint [6]: 19 µL/min/mg | EC50 (Cannabinoid receptor 1 [7]): 31.6 nM

CN(CC(=O)NCCO)Cc1nc(-c2cn(CC3CCOCC3)c3c(Cl)cccc23)no1
microsomal CLint [4]: 49 µL/min/mg | microsomal CLint [6]: 66 µL/min/mg

COc1cccc2c(-c3nsc(CN4CCN(CC(N)=O)CC4)n3)cn(CC3CCOCC3)c12
bioavailability [1]: 40% | Ki (Cannabinoid receptor 1 [2]): 6.31 nM | Kp [3]: 0.18 | microsomal CLint [4]: 17 µL/min/mg | Ki (Cannabinoid receptor 2): 15.8 nM | solubility [5]: 5 µg/mL (≈ 10.3 µM) | microsomal CLint [6]: 17 µL/min/mg | EC50 (Cannabinoid receptor 1 [7]): 79.4 nM

CN(CC(N)=O)Cc1nc(-c2cn(CC3CCOCC3)c3c(Cl)cccc23)ns1
EC50 (Cannabinoid receptor 1 [7]): 631 nM

Cc1c(C(=O)c2cccc3ccccc23)c2cccc3c2n1[C@H](CN1CCOCC1)CO3 [WIN-552122]
bioavailability [1]: 0% | ED50 (Rattus norvegicus [8]): 1.6 µmol/kg | Ratio (Rattus norvegicus [9]): 3.7 | Kp [3]: 1.3 | MED (Rattus norvegicus [10]): 5.7 µmol/kg

COc1cccc2c(-c3nsc(CN(C)CC(N)=O)n3)cn(CC3CCOCC3)c12
EC50 (Cannabinoid receptor 1 [7]): 1260 nM

NC(=O)CN1CCN(Cc2nc(-c3cn(CC4CCS(=O)(=O)CC4)c4c(Cl)cccc34)ns2)CC1
microsomal CLint [4]: < 12 µL/min/mg | microsomal CLint [6]: < 12 µL/min/mg | pEC50 (Cannabinoid receptor 1 [7]): 6.7

COc1cccc2c(-c3noc(CN(C)CC(N)=O)n3)cn(CC3CCOCC3)c12
EC50 (Cannabinoid receptor 1 [7]): 2510 nM

NC(=O)CN1CCN(Cc2nc(-c3cn(CC4CCOCC4)c4c(Cl)cccc34)ns2)CC1
microsomal CLint [4]: 23 µL/min/mg | microsomal CLint [6]: 23 µL/min/mg | EC50 (Cannabinoid receptor 1 [7]): 63.1 nM

NC(=O)CN1CCN(Cc2nc(-c3cn(CC4CCOCC4)c4c(Cl)cccc34)no2)CC1
fraction unbound [11]: 0.063 | Cmax [12]: 6.4 ng/mL | bioavailability [1]: 45% | Ratio (Rattus norvegicus [13]): >9.3 | Ratio AUC [14]: 0.21 | ED50 (Rattus norvegicus [15]): 17 µmol/kg | Ki (Cannabinoid receptor 1 [2]): 20 nM | efflux ratio [16]: 1.5 | Ratio [17]: 0.23 | hepatocyte CLint [18]: 7 µL/min/1e6 cells | fraction unbound [19]: 0.034 | Kp [20]: 0.16 | microsomal CLint [21]: < 12 µL/min/mg | Kp [3]: 0.16 | microsomal CLint [4]: < 12 µL/min/mg | Ki (Cannabinoid receptor 2): 50.1 nM | MED (Rattus norvegicus [22]): > 160 µmol/kg | clearance [23]: 9.5 mL/min/kg | Cmax [24]: 722 ng/mL | microsomal CLint [25]: 13 µL/min/mg | Activity (Rattus norvegicus [26]): inactive | half-life [27]: 3.8 h | Papp [28]: 6.2 ×10⁻⁶ cm/s | Cmax [29]: 148 ng/g | Kp [30]: 0.22 | solubility [5]: 89 µg/mL (≈ 188 µM) | hepatocyte CLint [31]: 3 µL/min/1e6 cells | Kp [32]: 0.16 | bioavailability [33]: 45% | fraction unbound [34]: 0.04 | Vd [35]: 2.6 L/kg | Kp [36]: 0.2 | fraction unbound [37]: 0.037 | Ki [38]: 20000 nM | microsomal CLint [6]: 12 µL/min/mg | ED50 (Rattus norvegicus [39]): 2.5 µmol/kg | microsomal CLint [40]: < 12 µL/min/mg | Cmax [41]: 814 ng/mL | fraction unbound [42]: 0.039 | Cmax [43]: 134 ng/g

CN(CC(N)=O)Cc1nc(-c2cn(CC3CCS(=O)(=O)CC3)c3c(Cl)cccc23)no1
microsomal CLint [4]: 33 µL/min/mg | microsomal CLint [6]: 26 µL/min/mg | EC50 (Cannabinoid receptor 1 [7]): 158 nM

CN(CC(N)=O)Cc1nc(-c2cn(CC3CCS(=O)(=O)CC3)c3c(Cl)cccc23)ns1
microsomal CLint [4]: 52 µL/min/mg | microsomal CLint [6]: 25 µL/min/mg | EC50 (Cannabinoid receptor 1 [7]): 158 nM

NC(=O)CN1CCN(Cc2nc(-c3cn(CC4CCS(=O)(=O)CC4)c4c(Cl)cccc34)no2)CC1
microsomal CLint [4]: 48 µL/min/mg | microsomal CLint [6]: < 12 µL/min/mg | EC50 (Cannabinoid receptor 1 [7]): 501 nM

CN(CC(N)=O)Cc1nc(-c2cn(CC3CCOCC3)c3c(Cl)cccc23)no1.Cl
Kp [3]: 0.9 | microsomal CLint [4]: 43 µL/min/mg | microsomal CLint [6]: 36 µL/min/mg

COc1cccc2c(-c3noc(CN4CCC(C(=O)NCCO)CC4)n3)cn(CC3CCOCC3)c12
EC50 (Cannabinoid receptor 1 [7]): 631 nM

O=C(NCCO)C1CCN(Cc2nc(-c3cn(CC4CCOCC4)c4c(Cl)cccc34)no2)CC1
bioavailability [1]: 8% | Ki (Cannabinoid receptor 1 [2]): 3.98 nM | Kp [3]: 0.03 | microsomal CLint [4]: 18 µL/min/mg | Ki (Cannabinoid receptor 2): 20 nM | microsomal CLint [6]: 16 µL/min/mg
